For data set [1], the target named is T1, SARS-CoV-2 3CLpro (Severe acute respiratory syndrome coronavirus 2, UniProt P0DTD1). The data set can be described thus: SPR binding assay on immobilized 3CLpro.
The target of data set [2] is T1, SARS-CoV-2 3CLpro. Kind of data set: FRET protease assay, 3CLpro enzyme activity inhibition. Format: biochemical.
Data set [3] concerns 3CLpro. To be noted: cited from earlier work.
Data set [4] relates to 3CLpro. The following applies: read-out: IC50, inhibition of 3CLpro activity; cited from earlier work.
For data set [5] the following is noted: retrieved from database; ref TCMSP database; cited from earlier work.
Data set [6] addresses T1, SARS-CoV-2 3CLpro. The data set can be described thus: Thermal shift assay. The following applies: compared with DMSO control. Format: binding.
A further data set can be described thus: Water solubility. Format: physicochemical.

Structures are written as SMILES. Where only a bound is given, the exact number is not on record here.

Compound `O=c1c(O)c(-c2ccc(O)cc2)oc2cc(O)cc(O)c12` [Kaempferol, kaempferol] returned a Kd on SARS-CoV-2 3CLpro [1] of 1.7 µM. For the same compound, the IC50 on SARS-CoV-2 3CLpro [2] is greater than 100 µM.
Turning to `O=c1c2ccccc2[se]n1-c1ccccc1` [Ebselen], the EC50 in the data set with 3CLpro [3] was 4.67 ± 0.8 µM. Moreover, in the data set on 3CLpro [4], the IC50 was 0.67 ± 0.09 µM.
For `O=C(O[C@@H]1Cc2c(O)cc(O)cc2O[C@@H]1c1cc(O)c(O)c(O)c1)c1cc(O)c(O)c(O)c1` [Epigallocatechin-3-gallate, epigallocatechin-3-gallate], the “OB (oral bioavailability)” value in data set [5] is 55.09%. In addition, the “effect on thermal stability of 3CLpro” value at SARS-CoV-2 3CLpro [6] was “altered the thermal stability of SARS-CoV-2 3CLpro in a dose-dependent manner”.
As to `O=c1cc(-c2ccc(O)c(O)c2)oc2cc(O)cc(O)c12` [Luteolin, luteolin], the affinity on SARS-CoV-2 3CLpro [1], expressed as Kd, was 1.63 µM. On SARS-CoV-2 3CLpro [2], this compound showed an IC50 of 89.7 µM.
For `COc1cc(-c2oc3cc(O)cc(O)c3c(=O)c2O)ccc1O` [Isorhamnetin, isorhamnetin], the water solubility entry in the data set “Water solubility” is “low water solubility”.
With `O=C1C[C@@H](c2ccc(O)cc2)Oc2cc(O)cc(O)c21` [Naringenin, naringenin], the Kd at SARS-CoV-2 3CLpro [1] is 2.87 µM. This compound displayed an IC50 against SARS-CoV-2 3CLpro [2] greater than 100 µM.

Values taken from paper PMC7859723 (International Journal of Biological Macromolecules, 2021).
